Our source for the IC50 values is paper PMC3627854 (Osteoporosis International, 2012).

A word on the IC50: it is the concentration that inhibits the measured activity by half. Low readings indicate greater potency in that assay, high ones weaker potency in that assay.

The target in this experiment is T1, IKKα (Mus musculus, UniProt Q60680).
T1 sequence (Q60680 1-745): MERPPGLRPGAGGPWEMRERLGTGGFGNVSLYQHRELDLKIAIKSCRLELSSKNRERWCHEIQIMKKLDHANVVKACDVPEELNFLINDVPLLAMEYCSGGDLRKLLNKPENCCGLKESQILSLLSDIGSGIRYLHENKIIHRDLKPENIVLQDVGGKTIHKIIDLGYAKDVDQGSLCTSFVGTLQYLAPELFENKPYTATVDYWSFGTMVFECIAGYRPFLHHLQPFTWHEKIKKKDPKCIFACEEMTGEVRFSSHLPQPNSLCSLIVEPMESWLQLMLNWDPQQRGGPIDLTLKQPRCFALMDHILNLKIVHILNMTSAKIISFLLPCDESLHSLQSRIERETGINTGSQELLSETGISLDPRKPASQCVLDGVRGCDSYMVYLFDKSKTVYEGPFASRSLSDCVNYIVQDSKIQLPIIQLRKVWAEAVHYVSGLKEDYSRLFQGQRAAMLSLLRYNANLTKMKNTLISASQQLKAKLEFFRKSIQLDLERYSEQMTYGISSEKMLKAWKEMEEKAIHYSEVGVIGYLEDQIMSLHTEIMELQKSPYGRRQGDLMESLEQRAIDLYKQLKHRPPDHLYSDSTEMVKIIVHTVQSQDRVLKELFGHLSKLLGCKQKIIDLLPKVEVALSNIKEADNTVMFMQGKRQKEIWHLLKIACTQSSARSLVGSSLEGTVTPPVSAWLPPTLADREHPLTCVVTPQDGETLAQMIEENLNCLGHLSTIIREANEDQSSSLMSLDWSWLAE
Briefly: IKKα KinEASE FP kinase activity assay, RANKL-stimulated RAW […] cells. It is filed as cell-based.

In turn, `O=C1C[C@@H](O[C@@H]2O[C@H](CO)[C@@H](O)[C@H](O)[C@H]2O)CO1` [kinsenoside, 3-(R)-3-β-D-glucopyranosyloxybutanolide] gave an IC50 of approximately 57.6 µM.
